Here are results for 2 molecules from patent US11161907B2, “Car-expressing cells against multiple tumor antigens and uses thereof” (Novartis AG, priority 2015, dated 2021).

Entries after “also recorded” stand apart in the source; their conditions may differ. Read-outs that look alike come from different tables or passages of the source.

Data set [1] has as its system huCART19 cells co-cultured with Nalm-6. Description: 4 day co-culture proliferation assay of CARTs with RAD001. It is filed as cell-based, human. As for the experimental part:
To evaluate the functionality of CARTs, the T cells are thawed and counted, and viability is assessed by Cellometer. The number of CAR-positive cells in each culture is normalized using non-transduced T cells (UTD). The impact of RAD001 on CARTs was tested in titrations with RAD001, starting at 50 nM. The target cell line used in all co-culture experiments is Nalm-6, a human pre-B cell acute lymphoblastic leukemia (ALL) cell line expressing CD19 and transduced to express luciferase.
For measuring the proliferation of CARTs, T cells are cultured with target cells at a ratio of 1:1. The assay is run for 4 days, when cells are stained for CD3, CD4, CD8 and CAR expression. The number of T cells is assessed by flow cytometry using counting beads as reference.

Data set [2] deals with NALM6-luc tumors. In words: NALM6-luc tumor growth with daily oral RAD001. The settings on record: daily oral dosing of RAD001 alone, 0.3-10 mg/kg. It is filed as in vivo, NSG mice. The method, then:
NALM6-luc cells were grown and expanded in vitro in RPMI supplemented with 10% heat inactivated fetal bovine serum. The cells were then transferred to a 15 ml conical tube and washed twice with cold sterile PBS. NALM6-luc cells were then counted and resuspended at a concentration of 10×10^6 cells per milliliter of PBS. The cells were placed on ice and immediately (within one hour) implanted in the mice. NALM6-luc cells were injected intravenously via the tail vein in a 100 μl volume, for a total of 1×10^6 cells per mouse.
(§1) A concentrated micro-emulsion of 50 mg equal to 1 mg RAD001 was formulated and then resuspended in D5W (dextrose 5% in water) at the time of dosing. Mice were orally dosed daily (via oral gavage) with 200 μl of the desired doses of RAD001. PK analysis: Mice were dosed daily with RAD001 starting 7 days post tumor implantation. Dosing groups were as follows: 0.3 mg/kg, 1 mg/kg, 3 mg/kg, and 10 mg/kg. Mice were bled on days 0 and 14 following the first and last dose of RAD001, at the following time points for PK analysis: 15 minutes, 30 minutes, 1 hour, 2 hours, 4 hours, 8 hours, 12 hours, and 24 hours.

A short description of data set [3]: RAD001 pharmacokinetic analysis in blood of tumor bearing mice. In kind it is in vivo, NSG mice. Particulars: for concentration at 24 h: NSG, mouse, whole blood. As for the experimental part: as §1
The test system of data set [4] is humanized CD19 CAR T cells. In words: In vivo proliferation of huCAR19 CAR T cells with and without RAD001 (FACS). The arrangement: species or system NSG mice. As for the experimental part:
Mice were administered 5×10^6 CAR T cells 7 days after tumor implantation. Cells were partially thawed in a 37 degree Celsius water bath and then completely thawed by the addition of 1 ml of cold sterile PBS to the tube containing the cells. The thawed cells were transferred to a 15 ml falcon tube and adjusted to a final volume of 10 mls with PBS. The cells were washed twice at 1000 rpm for 10 minutes each time and then counted on a hemocytometer. T cells were then resuspended at a concentration of 50×10^6 CAR T cells per ml of cold PBS and kept on ice until the mice were dosed. The mice were injected intravenously via the tail vein with 100 μl of the CAR T cells for a dose of 5×10^6 CAR T cells per mouse. Eight mice per group were treated either with 100 μl of PBS alone (PBS), or humanized CD19 CAR T cells.
A concentrated micro-emulsion of 50 mg equal to 1 mg RAD001 was formulated and then resuspended in D5W (dextrose 5% in water) at the time of dosing. Mice were orally dosed daily (via oral gavage) with 200 μl of the desired doses of RAD001. PK analysis: Mice were dosed daily with RAD001 starting 7 days post tumor implantation. Dosing groups were as follows: 0.3 mg/kg, 1 mg/kg, 3 mg/kg, and 10 mg/kg. […]
Based on these doses, huCAR19 CAR T cells were dosed with and without RAD001 to determine the proliferative ability of these cells. […] Mice were monitored via FACS for T cell expansion.

Data set [5] concerns subcutaneous SKOV3 tumors. Description: Established subcutaneous SKOV3 xenograft model of ovarian cancer. It is filed as in vivo, NSG mice. The settings on record: 3 weeks following adoptive transfer, versus UNT and CD19-27z groups. From the text:
All animals were obtained from the Stem Cell and Xenograft Core of the Abramson Cancer Center, University of Pennsylvania. Six to 12-week-old NOD/SCID/γ-chain−/− (NSG) mice were bred, treated and maintained under pathogen-free conditions in-house under University of Pennsylvania IACUC approved protocols. For an established ovarian cancer model, 6 to 12-week-old female NSG mice were inoculated s.c. with 3×10^6 SKOV3 fLuc+ cells on the flank on day 0. After tumors become palpable at about 1 month, human primary T cell (CD4+ and CD8+ T cells used were mixed at 1:1 ratio) were activated, and transduced as described above. After 2 weeks T cell expansion, when the tumor burden was ˜200-300 mm^3, mice were treated with T cells. The route, dose, and timing of T-cell injections is indicated in the individual figure legends. Tumor dimensions were measured with calipers, and tumor volumes calculated using the formula V=½(length×width^2), where length is greatest longitudinal diameter and width is greatest transverse diameter. […] Photon emission from fLuc+ cells was quantified using the “Living Image” software (Xenogen) for all in vivo experiments. […]
Tumor growth was also monitored by Bioluminescent imaging (BLI). BLI was done using Xenogen IVIS imaging system and the photons emitted from fLuc-expressing cells within the animal body were quantified using Living Image software (Xenogen). […]

For data set [6], the target named is FRA (Homo sapiens, UniProt P15328). The settings on record: cited from earlier work.
Sequence of FRA (P15328 25-234): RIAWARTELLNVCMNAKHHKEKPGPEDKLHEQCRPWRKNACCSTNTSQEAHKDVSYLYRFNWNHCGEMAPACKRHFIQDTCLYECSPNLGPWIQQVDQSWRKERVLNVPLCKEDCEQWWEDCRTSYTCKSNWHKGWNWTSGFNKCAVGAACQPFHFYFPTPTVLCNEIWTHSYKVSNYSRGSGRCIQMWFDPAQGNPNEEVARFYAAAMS

On to `CO[C@H]1C[C@@H]2CC[C@@H](C)[C@@](O)(O2)C(=O)C(=O)N2CCCC[C@H]2C(=O)O[C@H]([C@H](C)C[C@@H]2CC[C@@H](OCCO)[C@H](OC)C2)CC(=O)[C@H](C)/C=C(\C)[C@@H](O)[C@@H](OC)C(=O)[C@H](C)C[C@H](C)/C=C/C=C/C=C/1C` [RAD001, (1R,9S,12S,15R,16E,18R,19R,21R,23S,24E,26E,28E,30S,32S,35R)-1,18-dihydroxy-12-{(1R)-2-[(1S,3R,4R)-4-(2-hydroxyethoxy)-3-methoxycyclohexyl]-1-methylethyl}-19,30-dimethoxy-15,17,21,23,29,35-hexamethyl-11,36-dioxa-4-aza-tricyclo[30.3.1.04,9]hexatriaconta-16,24,26,28-tetraene-2,3,10,14,20-pentaone], for which the “proliferation of huCART19 cells” value in data set [1] (0.0032 and 0.016 nM RAD001) is on record as “higher than observed without the addition of RAD001”. Besides, the “RAD001 concentration at which huCART19 cells expanded” value in data set [1] (4 day co-culture with Nalm-6, 1:1) was “less than 0.016 nM”. Further, the “impact on the growth of NALM6-luc tumors” value in data set [2] is on record as “did not have an impact”. For the same molecule, the concentration at 24 h in data set [3] (oral, 0.3 mg/kg, 24 hours after the final dose, read-out: concentration of RAD001) was more than 10 nM; in data set [3] (day 0 PK, 24 hours after dosing, 0.3 mg/kg oral, read-out: RAD001 concentration in the blood) it was more than 10 nM. Moreover, in data set [3] (day 14 PK, 24 hours after dosing, 0.3 mg/kg oral), the “RAD001 concentration in the blood” value was “above 10 nm”. The “stability in the blood” value in data set [3] (tumor bearing mice) was “fairly stable”. Also, the “CAR T cell proliferation in vivo” value in data set [4] (0.003 mg/kg RAD001 daily) is “enhancement in CAR T cell proliferation”. Also, in data set [4] (lowest doses of RAD001, daily oral), the “proliferation of the CAR T cells in vivo” value was “enhanced proliferation”.

B1: C4: fully human anti-FRA scFv/Fab fragment, scFv SEQ ID NO: 98 (protein)
scFv: QLVESGGGLVQPGRSLRLSCTTSGFTFGDYAMIWARQAPGKGLEWVSSISSSSSYIYYADSVKGRFTISRDNAKNSLYLQMNSLRAEDTAVYYCARERYDFWSGMDVWGKGTTVTVSSGGGGSGGGGSGGSAQSALTQPASVSGSPGQSITISCTGTSSDVGSYNLVSWYQQHPGKAPKLMIYEGSKRPSGVSNRFSGSKSGNAASLTISGLQAEDEADYYCQSYDSSLSVVFGGGTKLTVLG
With B1, in data set [5], the “persistence of transferred T-cells in the peripheral blood” value is “higher numbers of CD4+ and CD8+ T cells”. For the same molecule, the “binding affinity relative to murine MOv19” value in data set [6] is on record as “approximately five-fold less; also recorded: approximately five-fold weaker”.
